Our source for the IC50, EC50 and AC50 values is ChEMBL document CHEMBL1201862, “PubChem BioAssay data set” (2004).

Activity calls are given as the source filed them.

In experiment [1] the target is Melanocortin receptor 4 (Homo sapiens, UniProt P32245). Kind of experiment: inhibitors of MC4R cAMP signaling – cell-based, TR-FRET, biased antagonists, dose response (AID 602298).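 Note: antagonist potency against agonist-stimulated cAMP production.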 The experiment is classed as functional.
Experiment [2] is described as follows: cAMP pathway inhibition in counterscreen cell line – TR-FRET cAMP detection, counter-screen for MC4R biased antagonist project, dose response (AID 602305).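 Note: U2OS cells stimulated with forskolin near its EC80 as the cAMP inducer; potency is for inhibition of forskolin-stimulated cAMP signaling.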 The experiment is classed as functional, cell-based. (Counterscreens check selectivity or assay interference.)
Experiment [3] deals with T1, Apoptotic protease-activating factor 1 (Homo sapiens, UniProt O14727).
T1 sequence (O14727 whole entry): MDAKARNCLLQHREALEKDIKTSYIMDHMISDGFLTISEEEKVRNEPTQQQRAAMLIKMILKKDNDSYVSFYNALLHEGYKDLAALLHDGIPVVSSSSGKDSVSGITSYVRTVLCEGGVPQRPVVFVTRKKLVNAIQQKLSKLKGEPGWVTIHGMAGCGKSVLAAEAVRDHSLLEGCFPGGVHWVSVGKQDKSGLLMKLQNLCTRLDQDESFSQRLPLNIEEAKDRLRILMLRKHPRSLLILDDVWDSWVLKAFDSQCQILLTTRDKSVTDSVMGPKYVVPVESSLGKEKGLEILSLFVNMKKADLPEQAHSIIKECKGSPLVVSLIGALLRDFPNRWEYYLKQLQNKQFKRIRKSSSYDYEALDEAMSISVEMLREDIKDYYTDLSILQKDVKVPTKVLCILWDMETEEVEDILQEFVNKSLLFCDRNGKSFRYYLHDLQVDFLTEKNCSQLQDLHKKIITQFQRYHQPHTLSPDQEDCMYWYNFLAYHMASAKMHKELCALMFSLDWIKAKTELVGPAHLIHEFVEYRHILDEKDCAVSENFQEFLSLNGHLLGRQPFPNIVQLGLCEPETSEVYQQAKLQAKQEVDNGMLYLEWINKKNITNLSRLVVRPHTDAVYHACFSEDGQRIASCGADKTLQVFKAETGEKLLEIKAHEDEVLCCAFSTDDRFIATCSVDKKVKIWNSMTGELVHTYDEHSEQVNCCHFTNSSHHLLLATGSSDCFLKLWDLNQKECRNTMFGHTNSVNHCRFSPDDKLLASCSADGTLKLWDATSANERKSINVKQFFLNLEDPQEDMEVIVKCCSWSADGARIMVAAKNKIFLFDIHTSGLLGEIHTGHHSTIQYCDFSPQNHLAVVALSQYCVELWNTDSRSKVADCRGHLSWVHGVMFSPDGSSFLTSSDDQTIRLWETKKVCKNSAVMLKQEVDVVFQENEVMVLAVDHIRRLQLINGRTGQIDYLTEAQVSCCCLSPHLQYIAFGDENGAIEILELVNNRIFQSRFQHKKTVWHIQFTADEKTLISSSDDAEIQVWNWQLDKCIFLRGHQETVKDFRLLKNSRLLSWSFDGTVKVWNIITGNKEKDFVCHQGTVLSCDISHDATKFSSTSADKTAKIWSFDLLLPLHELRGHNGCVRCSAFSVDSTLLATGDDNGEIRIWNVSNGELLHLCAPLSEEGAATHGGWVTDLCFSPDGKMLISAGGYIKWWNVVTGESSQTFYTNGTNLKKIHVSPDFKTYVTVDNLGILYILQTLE
The experiment is described as follows: SAR analysis of small molecule Activators of Apaf-1 in a Fluorescent assay. To be noted: read-out: EC50_Mean. The class given is functional.

Experiment [4] concerns the target T2, DNA repair protein RAD52 homolog (Homo sapiens, UniProt P43351).
T2 sequence (P43351 whole entry): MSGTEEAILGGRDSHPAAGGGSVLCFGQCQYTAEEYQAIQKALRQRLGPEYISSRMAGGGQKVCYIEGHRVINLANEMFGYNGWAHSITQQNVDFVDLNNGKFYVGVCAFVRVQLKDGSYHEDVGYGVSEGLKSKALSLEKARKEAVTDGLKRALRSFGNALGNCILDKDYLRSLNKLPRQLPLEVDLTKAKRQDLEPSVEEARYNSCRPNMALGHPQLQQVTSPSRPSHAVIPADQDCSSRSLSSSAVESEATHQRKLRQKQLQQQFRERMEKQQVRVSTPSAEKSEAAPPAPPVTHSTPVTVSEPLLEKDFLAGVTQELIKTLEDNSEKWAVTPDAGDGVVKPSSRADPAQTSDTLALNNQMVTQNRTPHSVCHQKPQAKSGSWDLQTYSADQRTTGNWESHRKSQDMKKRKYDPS
The experiment is classed as functional, biochemical.

Experiment [5] addresses T3, CAAX prenyl protease 2 (Saccharomyces cerevisiae S288c, UniProt Q03530).
T3 sequence (Q03530 whole entry): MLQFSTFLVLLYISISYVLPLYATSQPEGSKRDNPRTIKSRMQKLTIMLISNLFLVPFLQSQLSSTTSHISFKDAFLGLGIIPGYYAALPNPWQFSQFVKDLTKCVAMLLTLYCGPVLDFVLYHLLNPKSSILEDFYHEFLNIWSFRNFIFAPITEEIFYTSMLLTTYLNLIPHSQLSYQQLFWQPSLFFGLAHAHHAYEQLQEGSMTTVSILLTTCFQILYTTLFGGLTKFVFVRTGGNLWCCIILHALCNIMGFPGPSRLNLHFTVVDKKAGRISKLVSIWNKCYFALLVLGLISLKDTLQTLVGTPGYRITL
The class given is biochemical.

Experiment [6] concerns the target T4, Bcl-2-related protein A1 (Mus musculus, UniProt Q07440).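 Note: confirmatory dose–response counterscreen on Bfl-1, used to check hits from a UBC13 polyubiquitin inhibitor campaign.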
T4 sequence (Q07440 whole entry): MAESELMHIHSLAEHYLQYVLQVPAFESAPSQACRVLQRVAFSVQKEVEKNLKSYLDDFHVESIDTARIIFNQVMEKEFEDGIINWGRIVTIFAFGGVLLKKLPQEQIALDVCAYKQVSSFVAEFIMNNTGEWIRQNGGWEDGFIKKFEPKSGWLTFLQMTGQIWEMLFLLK
The experiment is classed as functional.

The target of experiment [7] is T5, Hepatocyte nuclear factor 4-alpha (Homo sapiens, UniProt P41235).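 Note: biochemical luminescence-based dose-response counterscreen measuring inhibition of HNF4 dimerization, run alongside a screen for blockers of ABHD5–perilipin-5 interaction; split luciferase complementation of HNF4 fusion proteins in cell lysate measuring dimerization.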
T5 sequence (P41235 whole entry): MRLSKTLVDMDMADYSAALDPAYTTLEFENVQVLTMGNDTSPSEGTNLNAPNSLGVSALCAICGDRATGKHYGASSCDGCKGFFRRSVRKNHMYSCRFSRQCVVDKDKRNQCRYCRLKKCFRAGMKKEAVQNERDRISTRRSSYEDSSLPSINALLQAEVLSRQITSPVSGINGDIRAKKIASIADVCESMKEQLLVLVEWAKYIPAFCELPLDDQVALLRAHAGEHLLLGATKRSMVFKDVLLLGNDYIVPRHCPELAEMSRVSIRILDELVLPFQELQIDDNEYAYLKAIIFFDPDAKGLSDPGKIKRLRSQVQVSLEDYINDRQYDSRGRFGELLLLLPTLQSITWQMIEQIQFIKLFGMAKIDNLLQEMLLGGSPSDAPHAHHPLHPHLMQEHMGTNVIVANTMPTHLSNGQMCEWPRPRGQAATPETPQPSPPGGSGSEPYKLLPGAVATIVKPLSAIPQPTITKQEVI
The experiment is classed as functional, cell-based.

The target in experiment [8] is T6, Hexokinase HKDC1 (Homo sapiens, UniProt Q2TB90).
T6 sequence (Q2TB90 whole entry): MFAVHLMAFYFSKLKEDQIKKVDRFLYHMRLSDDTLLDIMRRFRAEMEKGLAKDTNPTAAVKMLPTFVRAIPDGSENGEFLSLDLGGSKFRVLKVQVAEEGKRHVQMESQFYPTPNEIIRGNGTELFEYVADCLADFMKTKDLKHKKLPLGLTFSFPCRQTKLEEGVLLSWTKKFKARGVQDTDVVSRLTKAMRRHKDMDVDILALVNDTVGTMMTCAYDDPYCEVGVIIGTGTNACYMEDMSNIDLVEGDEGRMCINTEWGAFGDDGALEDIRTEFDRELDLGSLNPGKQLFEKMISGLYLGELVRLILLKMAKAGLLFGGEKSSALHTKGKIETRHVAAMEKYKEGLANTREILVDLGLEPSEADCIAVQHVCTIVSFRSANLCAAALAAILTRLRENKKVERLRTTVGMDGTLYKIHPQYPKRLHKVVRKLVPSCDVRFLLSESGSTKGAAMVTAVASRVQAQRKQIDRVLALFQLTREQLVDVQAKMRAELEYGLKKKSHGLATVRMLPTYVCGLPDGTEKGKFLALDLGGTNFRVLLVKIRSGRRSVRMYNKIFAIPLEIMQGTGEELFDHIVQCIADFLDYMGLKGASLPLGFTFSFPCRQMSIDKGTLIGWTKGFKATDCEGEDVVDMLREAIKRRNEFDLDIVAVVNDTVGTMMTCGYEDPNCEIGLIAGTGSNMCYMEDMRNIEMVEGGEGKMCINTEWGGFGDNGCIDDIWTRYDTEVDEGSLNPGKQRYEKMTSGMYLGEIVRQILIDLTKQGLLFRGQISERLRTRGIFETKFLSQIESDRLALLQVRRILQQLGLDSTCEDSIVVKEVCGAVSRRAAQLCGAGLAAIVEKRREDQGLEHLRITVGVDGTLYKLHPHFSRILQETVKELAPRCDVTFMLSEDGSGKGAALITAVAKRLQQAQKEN
The experiment is described as follows: inhibition of HKDC1 glucose phosphorylation – biochemical, W721R variant, dose response (AID 504729). The experiment is classed as functional.

Experiment [9] has as its target T7, Ubiquitin-conjugating enzyme E2 N (Homo sapiens, UniProt P61088).
T7 sequence (P61088 whole entry): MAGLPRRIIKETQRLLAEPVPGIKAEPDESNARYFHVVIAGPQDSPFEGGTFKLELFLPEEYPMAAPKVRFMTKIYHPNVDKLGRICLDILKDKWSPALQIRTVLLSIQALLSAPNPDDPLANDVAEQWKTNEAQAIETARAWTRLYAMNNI
The experiment is classed as functional.

Experiment [10] has as its target T7, Ubiquitin-conjugating enzyme E2 N. The class given is functional. This is another data set of the same source.
In experiment [11] the target is Paired box protein Pax-8 (Homo sapiens, UniProt Q06710). The experiment is described as follows: PAX8 transcriptional activity inhibition in RMG-I – RMG-I cells, luciferase, cherry-pick, dose response (AID 687027).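 Note: luciferase reporter driven by Pax8 target thyroperoxidase promoter measured by SteadyGlo luminescence.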 The experiment is classed as functional, cell-based.
Experiment [12] deals with Cytochrome P450 2C9 (Homo sapiens, UniProt P11712).
Experiment [13] addresses ATP-dependent molecular chaperone HSP82 (Candida albicans (strain WO-1) (Yeast), UniProt C4YTQ8). Kind of experiment: steroid-induced GRE reporter decrease in yeast – S. cerevisiae, luminescence, Hsp90 inhibitor project, dose response (AID 2400).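 Note: beta-galactosidase luminescence from glucocorticoid response element reporter as proxy for Hsp90 function; inhibitor potency where signal loss means Hsp90 inhibition.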 The experiment is classed as functional, cell-based.
Experiment [14] concerns the target T8, Cytochrome P450 1A2 (Homo sapiens, UniProt P05177).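 Note: PubChem cytochrome P450 panel assay, CYP1A2 panel member.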
T8 sequence (P05177 whole entry): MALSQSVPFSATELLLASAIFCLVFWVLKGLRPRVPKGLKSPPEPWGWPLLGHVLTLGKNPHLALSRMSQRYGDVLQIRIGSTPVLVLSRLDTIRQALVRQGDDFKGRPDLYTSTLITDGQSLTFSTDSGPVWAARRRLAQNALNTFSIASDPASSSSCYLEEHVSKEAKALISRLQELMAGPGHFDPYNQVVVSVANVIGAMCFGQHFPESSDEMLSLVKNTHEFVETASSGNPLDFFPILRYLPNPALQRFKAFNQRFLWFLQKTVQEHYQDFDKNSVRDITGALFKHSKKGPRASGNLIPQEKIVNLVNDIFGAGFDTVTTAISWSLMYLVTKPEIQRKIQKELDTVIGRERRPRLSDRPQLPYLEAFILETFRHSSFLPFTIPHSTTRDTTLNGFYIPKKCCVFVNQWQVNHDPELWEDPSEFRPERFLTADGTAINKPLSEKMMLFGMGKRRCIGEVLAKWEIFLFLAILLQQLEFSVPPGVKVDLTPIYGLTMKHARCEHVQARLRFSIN
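Throughout, for EC50 Mean: caspase-3 cleavage of fluorogenic Rh110 DEVD substrate downstream of apoptosome activation.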

Sequence of Melanocortin receptor 4 (P32245 whole entry): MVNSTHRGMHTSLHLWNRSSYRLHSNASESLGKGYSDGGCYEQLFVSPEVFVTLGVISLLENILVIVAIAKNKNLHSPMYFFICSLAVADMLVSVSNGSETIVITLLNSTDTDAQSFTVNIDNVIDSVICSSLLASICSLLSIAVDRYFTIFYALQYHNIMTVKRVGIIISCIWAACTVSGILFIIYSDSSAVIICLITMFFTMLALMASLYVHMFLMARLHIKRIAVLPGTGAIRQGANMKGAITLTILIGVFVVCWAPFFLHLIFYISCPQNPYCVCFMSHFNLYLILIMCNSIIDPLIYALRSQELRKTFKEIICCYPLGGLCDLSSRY
Sequence of Paired box protein Pax-8 (Q06710 whole entry): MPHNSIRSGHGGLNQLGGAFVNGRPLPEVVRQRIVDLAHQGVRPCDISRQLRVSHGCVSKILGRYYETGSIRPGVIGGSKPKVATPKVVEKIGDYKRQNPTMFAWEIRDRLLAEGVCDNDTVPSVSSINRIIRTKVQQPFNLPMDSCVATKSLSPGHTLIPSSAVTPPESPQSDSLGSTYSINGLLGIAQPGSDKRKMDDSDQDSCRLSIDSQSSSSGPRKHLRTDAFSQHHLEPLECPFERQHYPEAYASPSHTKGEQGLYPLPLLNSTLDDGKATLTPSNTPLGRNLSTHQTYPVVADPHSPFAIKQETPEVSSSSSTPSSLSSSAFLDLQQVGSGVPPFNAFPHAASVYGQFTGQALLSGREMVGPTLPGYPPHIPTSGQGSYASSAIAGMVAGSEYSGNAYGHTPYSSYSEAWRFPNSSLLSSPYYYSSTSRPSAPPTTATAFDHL
Sequence of ATP-dependent molecular chaperone HSP82 (C4YTQ8 whole entry): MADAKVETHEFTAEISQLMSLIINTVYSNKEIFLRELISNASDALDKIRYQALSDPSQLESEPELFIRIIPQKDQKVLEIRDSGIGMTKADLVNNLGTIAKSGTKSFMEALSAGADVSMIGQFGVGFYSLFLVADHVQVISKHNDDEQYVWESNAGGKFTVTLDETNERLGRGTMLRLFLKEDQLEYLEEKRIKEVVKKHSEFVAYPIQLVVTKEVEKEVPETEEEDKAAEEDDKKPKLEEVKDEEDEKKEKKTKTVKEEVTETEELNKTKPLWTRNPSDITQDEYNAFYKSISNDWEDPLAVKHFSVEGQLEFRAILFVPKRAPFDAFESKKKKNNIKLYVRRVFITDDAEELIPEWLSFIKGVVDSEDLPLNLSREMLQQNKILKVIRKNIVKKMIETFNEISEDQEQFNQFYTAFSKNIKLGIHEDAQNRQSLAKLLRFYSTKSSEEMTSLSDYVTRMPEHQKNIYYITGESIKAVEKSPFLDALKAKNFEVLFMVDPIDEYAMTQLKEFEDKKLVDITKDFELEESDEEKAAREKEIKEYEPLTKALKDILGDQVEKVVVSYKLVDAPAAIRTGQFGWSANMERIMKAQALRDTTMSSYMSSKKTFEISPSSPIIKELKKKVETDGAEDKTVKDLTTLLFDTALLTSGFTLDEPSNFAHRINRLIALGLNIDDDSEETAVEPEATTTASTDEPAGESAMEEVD
Sequence of Cytochrome P450 2C9 (P11712 whole entry): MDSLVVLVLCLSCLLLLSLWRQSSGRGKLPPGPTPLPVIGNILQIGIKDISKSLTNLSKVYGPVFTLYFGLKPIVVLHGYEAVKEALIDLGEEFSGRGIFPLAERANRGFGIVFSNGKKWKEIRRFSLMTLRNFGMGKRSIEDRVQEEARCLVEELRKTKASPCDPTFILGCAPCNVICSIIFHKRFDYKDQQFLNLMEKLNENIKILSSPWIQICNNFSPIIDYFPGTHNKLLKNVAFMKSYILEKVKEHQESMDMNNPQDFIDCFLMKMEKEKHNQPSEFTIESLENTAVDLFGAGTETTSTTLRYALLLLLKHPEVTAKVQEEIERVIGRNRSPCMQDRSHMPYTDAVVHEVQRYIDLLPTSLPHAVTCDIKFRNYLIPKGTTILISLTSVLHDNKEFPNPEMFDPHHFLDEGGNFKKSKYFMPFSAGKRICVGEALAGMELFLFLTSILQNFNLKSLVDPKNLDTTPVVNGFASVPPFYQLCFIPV

In the case of `CCc1cc2ccc(OC)cc2nc1SCC(=O)N1CCN(C(=O)c2ccco2)CC1`, the IC50 in experiment [1] and in experiment [2] was > 64.6 µM (inactive) each time.
Turning to `Cc1cccc(C)c1N1C(=O)CC2(CC(c3ccc4c(c3)OCCO4)=NO2)C1=O` (stereo not given), the EC50 in experiment [3] was > 100 µM (inactive).
Consider `[H]/N=C(\N/C(=N/[H])NCCCCCCNC(=N)NC(=N)Nc1ccc(Cl)cc1)Nc1ccc(Cl)cc1` [CHLORHEXIDINE], for which the AC50 in experiment [4] was 1.7 µM (active); in experiment [5], 5.69 µM (active); in experiment [11] it was 5.69 µM (active); in experiment [12], 15.8 µM (inconclusive); in experiment [14], 15.8 µM (inconclusive). The IC50 in experiment [1] is 2 µM (active); in experiment [6], > 20 µM (inactive); in [7], 23.5 µM (inactive); in [8] it was 8.99 µM (active); in experiment [9], 2.2 µM (active); in [10], 3.01 µM (active). In addition, the EC50 in [13] was > 150 µM (inactive).

A word on the IC50: it is the concentration that gives 50% inhibition. As a reminder, the AC50 is the concentration at which the activity in the assay is half-maximal.
